This is an account of results in US20190185518A9, “WARHEAD-CONTAINING PEPTIDOMIMETIC MACROCYCLES AS MODULATORS OF BFL-1” (AILERON Therapeutics, Inc., priority 2017, published 2019).

In series [1] the test system is ABT-199 resistant Burkitt lymphoma Raji cells. Briefly: WST-1 anti-proliferative activity in Raji cells. Type of series: cell-based, Human. To be noted: for IC50: TABLE 9, Raji cell proliferation. The text has this: WST-1 is a cell proliferation reagent that is used in colorimetric assays designed to measure the relative proliferation rates of cells in culture. The assay is based on the conversion of the tetrazolium salt WST-1 into a colored dye by mitochondrial dehydrogenase enzymes. The soluble salt is released into the media. Within a given time period, the reaction produces a color change that is directly proportional to the amount of mitochondrial dehydrogenase in a culture. The WST-1 assay measures the net metabolic activity of cells.

The target in series [2] is T1, Mcl-1 (Homo sapiens, UniProt Q07820). To be noted: cited from earlier work.
The test system of series [3] is MCL-1 driven Raji cells. Put plainly: cells. To be noted: Homo sapiens, read-out: EC50 (anti-proliferative effects).
Series [4] relates to Mcl-1, Bcl-xL, Bcl-2. Briefly: BCL-2 family selectivity profile. Type of series: binding. To be noted: for Profile: TABLE 8. An excerpt:
The binding spectrum of stapled BIM BH3 peptides were tuned for BCL-2 family selectivity. […] ABT-199 is venetoclax, and † represents values reported in the literature.

In series [5] the target is T2, MCL-1/BAK protein-protein interaction (Homo sapiens, UniProt Q07820).
T2 construct: host or cells: Raji
Briefly: MCL-1 displacement study (BAK FRET signal). Type of series: cell-based. As for the experimental part: BIM peptidomimetic macrocycles were tested for displacement of MCL-1 from a BAK fluorescence resonance energy transfer (FRET) peptide.
FIG. 19 compares normalized FRET signals of samples to determine the samples' effects in disrupting MCL-1/BAK protein-protein interactions.

Series [6] relates to Mcl-1, Bcl-xL, Bcl-2. To be noted: TABLE 8; † reported in the literature; cited from earlier work.
For series [7], the target named is T1, Mcl-1. Briefly: Ki determination for Mcl-1 (BCL-2 family binding spectrum). Summed up: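 Binding to Mcl-1 was measured as displacement of a fluorescein-labelled macrocyclic peptidomimetic, read by fluorescence polarization. Constants were fitted by nonlinear regression.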
Another series concerns the target Bcl-xL (Homo sapiens, UniProt Q07817). Briefly: Ki determination for Bcl-xL (BCL-2 family binding spectrum). The method, boiled down:
(§1)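 Competitive fluorescence polarization: compounds (1 nM–1 mM) with 25 nM fluoresceinated peptidomimetic macrocycle and 50 nM protein in 140 mM NaCl, 50 mM Tris-HCl pH 7.4, 30 min at room temperature. Constants from nonlinear regression.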

In series [8] the test system is A375-P melanoma cells. Put plainly: Cell viability (CellTiter-Glo), A375-P. Type of series: cell-based. To be noted: A375-P; 40 μM, 5% serum. As for the experimental part:
(§2) Cancer cells were cultured using a standard culture medium containing 10% fetal bovine serum (FBS) and penicillin-streptomycin (A375P: DMEM; SK-MEL-2, SK-MEL-28: EMEM). Cells were plated in 96-well plates (5×10^3 cells per well) and, after overnight incubation, treated with the indicated concentrations of Stapled Peptides in the corresponding medium supplemented with 5% FBS for the indicated durations. Cell viability and caspase-3/7 activation was measured using CellTiter-Glo and Caspase-Glo 3/7 chemiluminescence reagents (Promega), respectively. Luminescence was detected by a microplate reader (Spectramax M5, Molecular Devices).

The subject of series [9] is SK-MEL-2 melanoma cells. Briefly: Cell viability (CellTiter-Glo), SK-MEL-2. Type of series: cell-based. To be noted: SK-MEL-2; 40 μM, 5% serum. As for the experimental part:
as §2
On the technique in general: In ATP-based viability assays light output follows the ATP content of the culture.

For series [10], the system named is SK-MEL-28 melanoma cells. Briefly: Cell viability (CellTiter-Glo), SK-MEL-28. The class given is cell-based. Conditions: SK-MEL-28; 40 μM, 5% serum. Here is the method: as §2
Series [11] relates to A375-P melanoma cells. Put plainly: Caspase-3/7 activation (Caspase-Glo 3/7), A375-P. Conditions: A375-P; control BIM SAHBA1 40 μM, 5% serum. Type of series: cell-based. Here is the method:
as §2

Series [12] concerns SK-MEL-2 melanoma cells. Put plainly: Caspase-3/7 activation (Caspase-Glo 3/7), SK-MEL-2. The class given is cell-based. Conditions: SK-MEL-2; control BIM SAHBA1 40 μM, 5% serum. Here is the method: as §2
For series [13], the system named is SK-MEL-28 melanoma cells. Briefly: Caspase-3/7 activation (Caspase-Glo 3/7), SK-MEL-28. The class given is cell-based. To be noted: SK-MEL-28; control BIM SAHBA1 40 μM, 5% serum. As for the experimental part: as §2
A further series concerns BAX-BAK^wt/wt MEF cells. Briefly: On-mechanism cytotoxic activity, BAX-BAK wt/wt MEF cells. The class given is cell-based. Conditions: 5% serum.
The test system of series [14] is BAX-BAK^−/− double knock outs (DKO) MEF cells. Briefly: On-mechanism cytotoxic activity, BAX-BAK-/- double knock out MEF cells. Type of series: cell-based. Conditions: 5% serum.
Series [15] concerns released LDH (damaged cells). Briefly: Lactate dehydrogenase cytotoxicity colorimetric assay. Type of series: cell-based. To be noted: 5% serum. The text has this:
When cell membranes are compromised or damaged, lactate dehydrogenase (LDH), a soluble yet stable enzyme found inside every living cell, is released into the surrounding extracellular space. The presence of LDH in the culture medium can be used as a cell death marker. The relative amounts of live and dead cells within the medium can then be quantified by measuring the amount of released LDH using a colorimetric or fluorimetric LDH cytotoxicity assay. When using an LDH colorimetric assay, the amount of LDH released in the surrounding environment is measured with an enzymatic reaction that converts iodonitrotetrazolium (INT) into red-colored formazan. When LDH is present in the cell culture, the LDH reduces NAD^+ to NADH and H^+ through the oxidation of lactate to pyruvate. Afterward, the catalyst (diaphorase) then transfers H/H^+ from NADH^+H^+ to the trazolium salt INT to form the red-colored formazan salt. The amount of color produced is measured at 490 nm by standard spectroscopy, and is proportional to the amount of damaged cells in the culture.

Series [16] has as its system MCL-1 driven Raji cells.
A further series has as its target Bcl-2 (Homo sapiens, UniProt P10415). Briefly: Ki determination for Bcl-2 (BCL-2 family binding spectrum). Conditions: read-out: Ki BCL-2. The method, boiled down:
as §1

For a further series, the system named is Human Raji cells. Type of series: cell-based. To be noted: Raji Cell Viability, 48 h, 5% serum. Here is the method:
BIM peptidomimetic macrocycles were tested for cell killing at various concentrations. Human Raji cells were treated with increasing doses of peptidomimetic macrocycles corresponding to Aileron peptide A (FIGS. 1 and 2), Aileron peptide B (FIGS. 1-3), and Aileron peptide C (FIGS. 3 and 4). An […] was calculated for each dose of the peptidomimetic macrocycle from a non-linear fit of response vs dose (GraphPad Prism).

Read-outs that look alike come from different tables or passages of the source. Positions of bridges follow the written chain, without caps; N, C: chain ends. Non-standard residues stand in square brackets, D forms with d. Residues, ends and D or L forms follow the SMILES beside them. Phe(4-F) = N[C@@H](Cc1ccc(F)cc1)C(=O)O; R8 = C=CCCCCCC[C@@](C)(N)C(=O)O; hLeu = CC(C)CC[C@H](N)C(=O)O; S5 = C=CCCC[C@](C)(N)C(=O)O; Aib = CC(C)(N)C(=O)O

The term IC50 denotes the concentration needed to halve the response being measured. A lower IC50 goes with greater potency in that assay. One may read the Ki as the dissociation constant of the complex between target and ligand, obtained from inhibition or displacement. As usually defined, the EC50 is the concentration needed to bring the measured effect to its halfway point.

T1 sequence (Q07820 whole entry, species assumed): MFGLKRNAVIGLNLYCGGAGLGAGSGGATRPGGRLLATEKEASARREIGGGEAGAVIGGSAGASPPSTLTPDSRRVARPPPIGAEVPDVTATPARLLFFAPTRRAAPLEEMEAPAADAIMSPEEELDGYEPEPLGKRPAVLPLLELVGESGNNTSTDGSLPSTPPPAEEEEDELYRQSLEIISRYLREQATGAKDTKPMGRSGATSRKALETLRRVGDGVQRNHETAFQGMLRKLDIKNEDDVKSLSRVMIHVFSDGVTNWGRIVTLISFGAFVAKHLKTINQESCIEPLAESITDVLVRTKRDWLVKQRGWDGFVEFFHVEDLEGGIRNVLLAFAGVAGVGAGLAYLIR
T2 sequence (Q07820 whole entry): as the sequence (Q07820 whole entry, species assumed) above
Bcl-xL, sequence (Q07817 whole entry, species assumed): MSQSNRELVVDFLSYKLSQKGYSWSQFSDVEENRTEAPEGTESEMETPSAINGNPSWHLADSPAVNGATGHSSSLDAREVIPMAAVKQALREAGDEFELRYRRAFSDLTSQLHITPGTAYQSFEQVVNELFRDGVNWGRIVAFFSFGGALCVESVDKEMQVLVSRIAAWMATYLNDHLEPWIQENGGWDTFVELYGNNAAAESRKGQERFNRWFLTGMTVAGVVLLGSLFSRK
Bcl-2, sequence (P10415 whole entry, species assumed): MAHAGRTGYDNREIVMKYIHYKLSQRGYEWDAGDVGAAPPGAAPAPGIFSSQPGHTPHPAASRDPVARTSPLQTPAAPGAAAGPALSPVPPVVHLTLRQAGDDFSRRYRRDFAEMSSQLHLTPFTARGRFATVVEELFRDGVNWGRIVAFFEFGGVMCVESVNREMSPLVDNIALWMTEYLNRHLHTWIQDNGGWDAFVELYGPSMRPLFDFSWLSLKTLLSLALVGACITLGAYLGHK

For `CC1(C)CCC(CN2CCN(c3ccc(C(=O)NS(=O)(=O)c4ccc(NCC5CCOCC5)c([N+](=O)[O-])c4)c(Oc4cnc5[nH]ccc5c4)c3)CC2)=C(c2ccc(Cl)cc2)C1` [ABT-199, venetoclax], in [1] (Homo sapiens), the IC50 was determined as 3100 nM. Moreover, the Ki was over 444 nM on Mcl-1 [2] (TABLE 6, † values reported in the literature) and over 444 nM at Mcl-1 [2] (TABLE 8, † reported in the literature). For the same molecule, in the series on MCL-1 driven Raji cells [3], the EC50 lay in the range of 3700 to 4900 nM.
For `CC1(C)CCC(c2ccc(Cl)cc2)=C(CN2CCN(c3ccc(C(=O)NS(=O)(=O)c4ccc(N[C@H](CCN5CCOCC5)CSc5ccccc5)c(S(=O)(=O)C(F)(F)F)c4)cc3)CC2)C1` [ABT-263, navitoclax, reference compound], the Profile result in the series with Mcl-1, Bcl-xL, Bcl-2 [4] is “Bcl-xL/Bcl-2 selective”; with Mcl-1, Bcl-xL, Bcl-2 [6] it was “Bcl-xL/Bcl-2 selective”. In addition, the “disrupting the MCL-1/BAK protein-protein interaction (normalized FRET signal)” value in series [5] (5 μM or 10 μM) is “did not disrupt”.
Consider `CC[C@H](C)[C@H](NC(=O)[C@H](Cc1c[nH]c2ccccc12)NC(=O)[C@H](CCCNC(=N)N)NC(C)=O)C(=O)N[C@@H](C)C(=O)N[C@@H](CCC(N)=O)C(=O)N[C@@H](C)C(=O)N[C@@H](CC(C)C)C(=O)N[C@@H](CCCNC(=N)N)C(=O)N[C@@]1(C)CCCC=CCCC[C@@](C)(C(=O)N[C@@H](CC(C)C)C(=O)N[C@@H](CC(N)=O)C(=O)NC(C)(C)C(=O)N[C@@H](Cc2ccccc2)C(=O)N[C@@H](Cc2ccc(O)cc2)C(=O)N[C@@H](C)C(=O)N[C@@H](Cc2c[nH]cn2)C(=O)N[C@@H](Cc2c[nH]cn2)C(N)=O)NC(=O)[C@H](CC(=O)O)NC(=O)CNC(=O)[C@H]([C@@H](C)CC)NC1=O` [Peptide #14] (Ac-RWIAQALR[S5]IGD[S5]LN[Aib]FYAHH-NH2; staple 9-13), for which, on Mcl-1 [7] (TABLE 7, read-out: MCL-1 Ki), the inhibitory constant (Ki) worked out at 11 nM. Also, the “Ki of MCL-1 compared with Ki of BCL-xL or BCL-2” value at Mcl-1, Bcl-xL, Bcl-2 [4] (TABLE 7 assay) is reported as “drastically lower”. In addition, the Profile entry in the series with Mcl-1, Bcl-xL, Bcl-2 [4] is listed as “Mcl-1 selective”. Also, the “disrupting the MCL-1/BAK protein-protein interaction (normalized FRET signal)” value in series [5] (10 μM and 20 μM) is given as “highly effective”.
Turning to `CC[C@H](C)[C@H](NC(C)=O)C(=O)N[C@@H](Cc1c[nH]c2ccccc12)C(=O)N[C@H](C(=O)N[C@@H](C)C(=O)N[C@@H](CCC(N)=O)C(=O)N[C@@H](C)C(=O)N[C@@H](CC(C)C)C(=O)N[C@@H](CCCNC(=N)N)C(=O)N[C@]1(C)CCCCCCC=CCCC[C@@](C)(C(=O)N[C@@H](Cc2ccc(O)cc2)C(=O)N[C@@H](Cc2ccc(F)cc2)C(=O)N[C@@H](C)C(N)=O)NC(=O)[C@H](CC(N)=O)NC(=O)[C@H](Cc2ccccc2)NC(=O)[C@H](C)NC(=O)[C@H](CC(=O)O)NC(=O)CNC(=O)[C@H](CCC(C)C)NC1=O)[C@@H](C)CC` [Peptide #16] (Ac-IWIAQALR[R8][hLeu]GDAFN[S5]Y[Phe(4-F)]A-NH2; staple 9-16), the inhibition constant (Ki) at Mcl-1 [7] (TABLE 8, read-out: Mcl-1 Ki) came to 27 nM; at Bcl-xL (TABLE 8, read-out: Bcl-xL Ki), 13 nM. The Profile entry in the series on Mcl-1, Bcl-xL, Bcl-2 [4] is “Pan-selective”. The “% cell viability” value with A375-P melanoma cells [8], in the series with SK-MEL-2 melanoma cells [9] and with SK-MEL-28 melanoma cells [10] was “decreased the % viability of the cells” in each case. The “Relative caspase-3/7 activation” value in the series with A375-P melanoma cells [11], with SK-MEL-2 melanoma cells [12] and with SK-MEL-28 melanoma cells [13] was “higher levels of caspase-3/7 activation than the BIM SAHBA1 control” each time. The on-mechanism cytotoxic activity entry is listed as “exhibited on-mechanism cytotoxic activity” in the series with BAX-BAK^wt/wt MEF cells and “did not exhibit on-mechanism cytotoxic activity” in series [14]. In series [15], the “off-target cytotoxicity in the LDH assay” value is “No off-target cytotoxicity was observed”. Moreover, the “potency relative to BIM SAHBA1” value in [1] (Raji cell line) is listed as “ten times more potent than BIM SAHBA1”. Besides, half-maximal inhibition in series [1] (IC50) was put at 2000 nM. Besides, the EC50 in the series on MCL-1 driven Raji cells [16] fell in the range of 1200 to 1600 nM. The “anti-proliferative effects in combination” value with MCL-1 driven Raji cells [16] (Raji cells, combined with fixed doses of the other agent (peptide #16 0.95-3.8 μM or ABT-199 1.9-3.8 μM)) is listed as “enhanced”. For the same molecule, the “Raji cell proliferation (fraction of control)” value in the series with MCL-1 driven Raji cells [16] (increasing doses, combination study) was “decreased”.
In the case of `CC[C@H](C)[C@H](NC(C)=O)C(=O)N[C@@H](Cc1c[nH]c2ccccc12)C(=O)N[C@H](C(=O)N[C@@H](C)C(=O)N[C@@H](CCC(N)=O)C(=O)N[C@@H](C)C(=O)N[C@@H](CC(C)C)C(=O)N[C@@H](CCCNC(=N)N)C(=O)N[C@]1(C)CCCCCCC=CCCC[C@@](C)(C(=O)N[C@@H](Cc2ccc(O)cc2)C(=O)N[C@@H](Cc2ccc(O)cc2)C(=O)N[C@@H](C)C(N)=O)NC(=O)[C@H](CC(N)=O)NC(=O)[C@H](Cc2ccccc2)NC(=O)[C@H](CCC(=O)O)NC(=O)[C@H](CC(=O)O)NC(=O)CNC(=O)[C@H]([C@@H](C)CC)NC1=O)[C@@H](C)CC` [compound 1649] (Ac-IWIAQALR[R8]IGDEFN[S5]YYA-NH2; staple 9-16), the Ki on Mcl-1 [7] (read-out: Ki MCL-1) came to 1.8 nM; on Bcl-xL (read-out: Ki BCL-XL), 1.4 nM; on Bcl-2, 3.2 nM. Moreover, the half-maximal effective concentration (EC50) in the series with Human Raji cells was over 40 µM.
